ChEMBL document CHEMBL1773043, “Platensimycin and platencin congeners from Streptomyces platensis” (J Nat Prod, 2011)
Calls of active or inactive are those of the source.

What was measured:
[1] = tested on: Streptococcus pneumoniae; experiment: Antibacterial activity against Streptococcus pneumoniae at 64 ug/ml after 20 hrs; type: functional, organism-based
[2] = biological target: T1, 3-oxoacyl-[acyl-carrier-protein] synthase 2 (Staphylococcus aureus) (UniProt Q5TKS0); experiment: Inhibition of Staphylococcus aureus […] assessed as [2-14C]-malonyl CoA incorporation after 90 mins by cell free-based scintillation counting
T1 sequence (whole entry): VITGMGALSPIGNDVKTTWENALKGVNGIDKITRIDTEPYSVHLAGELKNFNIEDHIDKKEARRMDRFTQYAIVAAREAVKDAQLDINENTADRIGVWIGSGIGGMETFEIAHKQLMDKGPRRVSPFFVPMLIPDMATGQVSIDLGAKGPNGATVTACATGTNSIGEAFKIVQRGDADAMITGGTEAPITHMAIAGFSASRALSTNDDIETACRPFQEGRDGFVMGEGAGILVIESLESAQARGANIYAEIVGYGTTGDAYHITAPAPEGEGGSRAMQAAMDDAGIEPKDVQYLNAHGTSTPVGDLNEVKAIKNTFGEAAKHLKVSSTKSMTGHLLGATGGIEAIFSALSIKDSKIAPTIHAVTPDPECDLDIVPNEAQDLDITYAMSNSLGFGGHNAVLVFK

[3] = tested on: Staphylococcus aureus; experiment: Antibacterial activity against Staphylococcus aureus at 64 ug/ml after 20 hrs; type: functional, organism-based
[4] = tested on: Enterococcus faecalis; experiment: Antibacterial activity against Enterococcus faecalis at 64 ug/ml after 20 hrs; type: functional, organism-based
[5] = tested on: Enterococcus faecium; experiment: Antibacterial activity against Enterococcus faecium at 64 ug/ml after 20 hrs; type: functional, organism-based
[6] = tested on: Escherichia coli; experiment: Antibacterial activity against Escherichia coli at 64 ug/ml after 20 hrs; type: functional, organism-based
[7] = tested on: Haemophilus influenzae; experiment: Antibacterial activity against Haemophilus influenzae at 64 ug/ml after 20 hrs; type: functional, organism-based

C[C@@]1(O)CC23C=CC(=O)[C@@](C)(CCC(=O)Nc4c(O)ccc(C(=O)O)c4O)C2CC1CC3 (stereo not given in full)
inactive: Activity [1] | inhibition [2] | Activity [3] | Activity [4] | Activity [5] | Activity [6] | Activity [7]

C=C1CC23C=CC(=O)[C@@](C)(CCC(=O)OCC(O)CO)C2CC1CC3 (stereo not given in full)
inactive: Activity [1] | inhibition [2] | Activity [3] | Activity [4] | Activity [5] | Activity [6] | Activity [7]

C[C@@]12C[C@@]34C=CC(=O)[C@@](C)(CCC(=O)Nc5c(O)cccc5O)C3[C@H](CC1C4)O2 (stereo not given in full)
inactive: Activity [1] | inhibition [2] | Activity [3] | Activity [4] | Activity [5] | Activity [6] | Activity [7]

C=C1CC23C=CC(=O)[C@@](C)(CCC(=O)Nc4c(O)ccc(C(=O)O)c4O)C2CC1[C@@H](O)C3 (stereo not given in full)
inactive: Activity [1] | inhibition [2] | Activity [3] | Activity [4] | Activity [5] | Activity [6] | Activity [7]

C[C@@]12C[C@]34CC1C[C@H](O2)C3[C@](C)(CCC(=O)Nc1c(O)ccc(C(=O)O)c1O)C(=O)C[C@H]4O (stereo not given in full)
inactive: Activity [1] | inhibition [2] | Activity [3] | Activity [4] | Activity [5] | Activity [6] | Activity [7]

C=C1CC23C=CC(=O)[C@@](C)(CCC(=O)OC)C2CC1[C@@H](O)C3 (stereo not given in full)
inactive: Activity [1] | inhibition [2] | Activity [3] | Activity [4] | Activity [5] | Activity [6] | Activity [7]

C[C@@]1(CCC(=O)Nc2c(O)ccc(C(=O)O)c2O)C(=O)C=CC23CC4CC(OC4(CO)C2)C31 (stereo not given in full)
inactive: Activity [1] | inhibition [2] | Activity [3] | Activity [4] | Activity [5] | Activity [6] | Activity [7]

C=C1C[C@@]23C=CC(=O)[C@@](C)(CCC(=O)Nc4c(O)ccc(C(=O)O)c4O)[C@@H]2C[C@@H]1CC3
inactive: Activity [1] | Activity [3] | Activity [4] | Activity [5] | Activity [6] | Activity [7]

C[C@@]12C[C@@]34C=CC(=O)[C@@](C)(CCC(=O)Nc5c(O)ccc(C(N)=O)c5O)C3[C@H](CC1C4)O2 (stereo not given in full)
inactive: Activity [1] | inhibition [2] | Activity [3] | Activity [4] | Activity [5] | Activity [6] | Activity [7]

CC12CC34C=CC(=O)[C@@](C)(CCC(=O)Nc5c(O)ccc(C(=O)O)c5O)C3C(C[C@]1(O)C4)O2 (stereo not given in full)
inactive: Activity [1] | inhibition [2] | Activity [3] | Activity [4] | Activity [5] | Activity [6] | Activity [7]

COC(=O)c1ccc(O)c(NC(=O)CC[C@]2(C)C(=O)C=CC34CCC(CC32)[C@@](O)(CO)C4)c1O (stereo not given in full)
inactive: Activity [1] | inhibition [2] | Activity [3] | Activity [4] | Activity [5] | Activity [6] | Activity [7]

COC(=O)c1ccc(O)c(NC(=O)CC[C@]2(C)C(=O)C=CC34C[C@@]5(C)O[C@@H](CC5[C@H]3O)C42)c1O (stereo not given in full)
inactive: Activity [1] | inhibition [2] | Activity [3] | Activity [4] | Activity [5] | Activity [6] | Activity [7]

CC12C[C@@]34C=CC(=O)[C@@](C)(CCC(=O)Nc5c(O)ccc(C(=O)O)c5O)C3[C@H](CC1C4)O2 (stereo not given in full)
inactive: Activity [1] | Activity [3] | Activity [4] | Activity [5] | Activity [6] | Activity [7]

CC(=O)NCC[C@H](NC(=O)CC[C@]1(C)C(=O)C=C[C@]23CC4C[C@H](O[C@]4(C)C2)C31)C(=O)O (stereo not given in full)
inactive: Activity [1] | inhibition [2] | Activity [3] | Activity [4] | Activity [5] | Activity [6] | Activity [7]

C=C1C[C@@]23C=CC(=O)[C@@](C)(CCC(=O)OC)C2C[C@@H]1C[C@H]3O (stereo not given in full)
inactive: Activity [1] | inhibition [2] | Activity [3] | Activity [4] | Activity [5] | Activity [6] | Activity [7]

C[C@@]12C[C@@]34C=CC(=O)[C@@](C)(CCC(=O)Nc5c(O)ccc6c(=O)[nH]c(=O)oc56)C3[C@H](CC1C4)O2 (stereo not given in full)
inactive: Activity [1] | inhibition [2] | Activity [3] | Activity [4] | Activity [5] | Activity [6] | Activity [7]

C[C@]12O[C@H]3CC1C[C@@]1(C=CC(=O)[C@@](C)(CCC(=O)O)C31)[C@H]2O (stereo not given in full)
inactive: Activity [1] | inhibition [2] | Activity [3] | Activity [4] | Activity [5] | Activity [6] | Activity [7]

COC(=O)c1ccc(O)c(NC(=O)CC[C@]2(C)C(=O)C=CC34CC5(C)OC(C[C@]5(O)C3)C42)c1O (stereo not given in full)
inactive: Activity [1] | inhibition [2] | Activity [3] | Activity [4] | Activity [5] | Activity [6] | Activity [7]

COC(=O)c1ccc(O)c(NC(=O)CC[C@]2(C)C(=O)C=C[C@]34CC5C[C@H](O[C@]5(C)C3)C42)c1O (stereo not given in full)
inactive: Activity [1] | inhibition [2] | Activity [3] | Activity [4] | Activity [5] | Activity [6] | Activity [7]

COC(=O)CC[C@]1(C)C(=O)C=C[C@]23CC4C[C@H](O[C@]4(C)[C@@H]2O)C13 (stereo not given in full)
inactive: Activity [1] | inhibition [2] | Activity [3] | Activity [4] | Activity [5] | Activity [6] | Activity [7]

COC(=O)c1ccc(O)c(NC(=O)CC[C@]2(C)C(=O)C=C[C@]34CC5C[C@H](O[C@]5(C)C3O)C42)c1O (stereo not given in full)
inactive: Activity [1] | inhibition [2] | Activity [3] | Activity [4] | Activity [5] | Activity [6] | Activity [7]
